Our source for the Kd values is US20240066136A1, “MODIFIED PROTEINS AND PROTEIN DEGRADERS” (Cullgen (Shanghai), Inc., priority 2020, published 2024).

Like-named read-outs stand apart in the source and are kept apart here. Ends that are not written are not given here.

The test deals with Human DDB1 (Homo sapiens (Human), UniProt Q16531). The test is described as follows: Surface plasmon resonance (SPR) binding assay to immobilized His-DDB1. On the procedure:
The binding affinities of heterobifunctional compounds to DDB1 were determined by SPR assay. Purified His-DDB1 proteins were immobilized on a CM5 sensor chip, and a dose range of compound solutions were injected in multi-cycle kinetic format. Data were fit to steady state model and gave equivalent dissociation constants (KD).
Protein Expression and Purification. Human DDB1 (UniPro: Q16531) coding sequences were cloned into pFastBacHTB vector and were expressed in High5 cells using Bac-to-Bac baculovirus expression system (Thermo Fisher Scientific). […] DDB1 proteins were obtained from supernatant of cell lysates and purified through sequential application of Ni affinity (Ni-NTA column. Bio-Rad), and size-exclusion (Superdex 200 16/600GL column, GE Healthcare) column chromatography.
Surface plasmon resonance (SPR) binding assay. All SPR studies were performed on a Biacore X100 plus or T200 instrument (GE Healthcare). Immobilization of purified His-DDB1 was carried out at 25° C. using a CM5 sensor chip. The surface was pre-equilibrated in HBS-EP running buffer (10 mM HEPES, pH7.4, 150 mM NaCl, 3 mM EDTA, 0.05% P20), then activated with EDC/NHS. His-DDB1 proteins were immobilized by amine coupling to a density of 11,000-13,000 resonance units (RUs) on flow cell FC2, whereas flow cell FC1 was used as reference. Both DDB1 immobilized and reference surfaces were deactivated with 1M ethanolamine.
All interaction experiments were performed at 25° C. […] Compound Solutions were injected individually in multi-cycle kinetic format without regeneration (flow rate […], association time 120 s, dissociation time 120 s). Sensorgrams from reference surfaces and blank injections were subtracted from the raw data (double-referencing) and the data was solvent-corrected prior to analysis. All data were fit to steady state affinity model using Biacore Evaluation Software and gave equivalent dissociation constants (KD).

Setting [1] is: SPR, steady state affinity model, 25° C., read-out: Binding (DDB1 binder activities, Kd).
[2] abbreviates: SPR, DDB1 binding moieties with linkers and/or target protein binding moiety, read-out: Binding (Kd).

Sequence of Human DDB1 (Q16531 whole entry): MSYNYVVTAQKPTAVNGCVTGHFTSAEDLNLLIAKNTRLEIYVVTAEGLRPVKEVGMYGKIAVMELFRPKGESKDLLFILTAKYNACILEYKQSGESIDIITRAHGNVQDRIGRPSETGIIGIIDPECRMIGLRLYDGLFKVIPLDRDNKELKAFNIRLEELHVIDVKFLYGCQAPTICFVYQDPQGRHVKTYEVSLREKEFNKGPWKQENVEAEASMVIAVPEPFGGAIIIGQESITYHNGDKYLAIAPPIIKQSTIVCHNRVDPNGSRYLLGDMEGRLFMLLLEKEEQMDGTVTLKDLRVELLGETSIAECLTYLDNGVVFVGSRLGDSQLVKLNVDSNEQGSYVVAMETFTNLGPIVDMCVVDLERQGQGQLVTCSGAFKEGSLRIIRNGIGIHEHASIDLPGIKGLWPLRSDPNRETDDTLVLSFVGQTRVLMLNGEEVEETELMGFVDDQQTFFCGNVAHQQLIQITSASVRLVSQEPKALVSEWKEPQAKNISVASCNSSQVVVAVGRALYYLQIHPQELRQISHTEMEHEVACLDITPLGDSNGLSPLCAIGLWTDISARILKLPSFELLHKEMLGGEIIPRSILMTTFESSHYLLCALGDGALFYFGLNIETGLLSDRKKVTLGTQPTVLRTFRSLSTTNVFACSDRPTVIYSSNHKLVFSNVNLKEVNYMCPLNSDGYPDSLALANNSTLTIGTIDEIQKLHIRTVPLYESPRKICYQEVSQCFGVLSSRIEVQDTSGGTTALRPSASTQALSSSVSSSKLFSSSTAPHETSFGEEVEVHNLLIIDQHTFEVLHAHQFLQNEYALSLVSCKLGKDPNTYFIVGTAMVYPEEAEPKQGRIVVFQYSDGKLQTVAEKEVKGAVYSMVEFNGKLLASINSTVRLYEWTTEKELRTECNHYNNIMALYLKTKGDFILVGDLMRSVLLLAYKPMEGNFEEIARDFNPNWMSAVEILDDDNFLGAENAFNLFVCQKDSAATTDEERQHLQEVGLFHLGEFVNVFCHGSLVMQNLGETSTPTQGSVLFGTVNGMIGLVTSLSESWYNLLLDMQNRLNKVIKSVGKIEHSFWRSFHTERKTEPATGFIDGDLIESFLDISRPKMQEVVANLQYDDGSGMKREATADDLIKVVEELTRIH

With `CS(=O)(=O)Nc1ccccc1C(=O)Nc1ncc([N+](=O)[O-])s1` [B-67, 2-(methylsulfonamido)-N-(5-nitrothiazol-2-yl)benzamide], the Kd (usually the free concentration of one partner at which half of the binding sites on the other are occupied at equilibrium, for simple one-to-one binding) under setting [1] was 20 to 100 µM.

For the compound `CC(C)C(=O)Nc1ccccc1C(=O)Nc1ncc([N+](=O)[O-])s1` [B-61, 2-Isobutyramido-N-(5-nitrothiazol-2-yl)benzamide], under setting [1], the Kd was 20 to 100 µM. As for `CC(=O)Nc1ccccc1C(=O)Nc1nc(C2CC2)c([N+](=O)[O-])s1` [B-32, 2-Acetamido-N-(4-cyclopropyl-5-nitrothiazol-2-yl)benzamide], the Kd under setting [1] was in the range of 20 to 100 µM. Regarding `CC(=O)Nc1ccccc1C(=O)Nc1nc(-c2ccccc2)cs1` [B-46, 2-acetamido-N-(4-phenylthiazol-2-yl)benzamide], the Kd under setting [1] was 20 to 100 µM.

For `CCCNC(=O)c1ccc(C(=O)Nc2ncc([N+](=O)[O-])s2)c(OC(C)=O)c1` [B-12, 2-((5-Nitrothiazol-2-yl)carbamoyl)-5-(propylcarbamoyl)phenyl acetate], under “read-out: Binding (DDB1 binder activities, Kd)”, the Kd was less than 20 µM. On to `CCCCNc1ccc(C(=O)Nc2ncc([N+](=O)[O-])s2)c(Nc2ccccc2)c1` [B-108, 4-(Butylamino)-N-(5-nitrothiazol-2-yl)-2-(phenylamino)benzamide], for which the Kd under setting [1] lay in the range of 20 to 100 µM. In the case of `CN(C(=O)c1ccccc1CCC(F)(F)F)c1ncc([N+](=O)[O-])s1` [B-105, N-Methyl-N-(5-nitrothiazol-2-yl)-2-(3,3,3-trifluoropropyl)benzamide], under setting [1], the Kd is greater than 100 µM. The same measure, in the same setting: next, `CCCCNc1ccc(C(=O)Nc2nc(-c3ccccc3)c([N+](=O)[O-])s2)c(-c2ccccc2)c1` [B-131, 5-(Butylamino)-N-(5-nitro-4-phenylthiazol-2-yl)-[1,1′-biphenyl]-2-carboxamide]: less than 20 µM; `CN(CCc1ccccc1)C1CCCN(C(=O)CCc2nc3ccccc3[nH]2)C1` (centres unmarked) [B-139, 3-(1H-benzo[d]imidazol-2-yl)-1-(3-(methyl(phenethyl)amino)piperidin-1-yl)propan-1-one]: less than 20 µM; `CCCCNc1ccc(C(=O)Nc2ncc(C(F)(F)F)s2)c(-c2ccccc2)c1` [B-118, 5-(Butylamino)-N-(5-(trifluoromethyl)thiazol-2-yl)-[1,1′-biphenyl]-2-carboxamide]: 20 to 100 µM. Same read-out and setting: next, `CCCCNc1ccc(C(=O)Nc2ncc([N+](=O)[O-])s2)c(C(C)C)c1` [B-109, 4-(Butylamino)-2-isopropyl-N-(5-nitrothiazol-2-yl)benzamide]: 20 to 100 µM; `Cc1ccc(C(=O)Nc2ncc([N+](=O)[O-])s2)c(C)c1` [B-172, 2,4-Dimethyl-N-(5-nitrothiazol-2-yl)benzamide]: 20 to 100 µM; `CCCCNc1ccc(C)c(C(=O)Nc2ncc([N+](=O)[O-])s2)c1` [B-148, 5-(Butylamino)-2-methyl-N-(5-nitrothiazol-2-yl)benzamide]: 20 to 100 µM. `CCCCNc1ccc(C(=O)Nc2ncc([N+](=O)[O-])s2)c(OCC)c1` [B-160, 4-(Butylamino)-2-ethoxy-N-(5-nitrothiazol-2-yl)benzamide]: the Kd under setting [1] is 20 to 100 µM. Consider `CCOc1cccc(C)c1C(=O)Nc1ncc([N+](=O)[O-])s1` [B-159, 2-Ethoxy-6-methyl-N-(5-nitrothiazol-2-yl)benzamide], for which the dissociation constant Kd under setting [1] was greater than 100 µM. Turning to `CNC(=O)CCCNC(=O)c1nnn2c1CN(C(=O)OCCCCCC(C)C)CC2` [B-144, 6-methylheptyl3-((4-(methylamino)-4-oxobutyl)carbamoyl)-6,7-dihydro-[1,2,3]triazolo[1,5-a]pyrazine-5(4H)-carboxylate], under setting [1], the dissociation constant (Kd) lay within 20 to 100 µM. Turning to `O=C(Nc1ncc([N+](=O)[O-])s1)c1ccccc1O` [B-2, 2-hydroxy-N-(5-nitrothiazol-2-yl)benzamide], the Kd under setting [1] is 20 to 100 µM. With `CC(=O)Nc1cc(NCCOCCOCCOCCOCCOCCOCCNC(=O)C[C@@H]2N=C(c3ccc(Cl)cc3)c3c(sc(C)c3C)-n3c(C)nnc32)ccc1C(=O)Nc1nc(C)c([N+](=O)[O-])s1` [D-37, (S)-2-Acetamido-4-((1-(4-(4-chlorophenyl)-2,3,9-trimethyl-6H-thieno[3,2-f][1,2,4]triazolo[4,3-a][1,4]diazepin-6-yl)-2-oxo-6,9,12,15,18,21-hexaoxa-3-azatricosan-23-yl)amino)-N-(4-methyl-5-nitrothiazol-2-yl)benzamide], the Kd under setting [2] was 20 to 100 µM. For the compound “2-Acetamido-3-butyramido-N-(5-nitrothiazol-2-yl)benzamide [B-146]”, under setting [1], the Kd lay within 20 to 100 µM.

In the case of `CN(C)c1ccccc1C(=O)Nc1ncc([N+](=O)[O-])s1` [B-69, 2-(dimethylamino)-N-(5-nitrothiazol-2-yl)benzamide], the Kd under setting [1] is greater than 100 µM. As to `O=C1CCCCCN1c1ncc([N+](=O)[O-])s1` [B-100, 1-(5-Nitrothiazol-2-yl)azepan-2-one], under setting [1], the Kd lay within 20 to 100 µM.

For the compound `O=C(Nc1ncc([N+](=O)[O-])s1)c1ccccc1OC(F)(F)F` [B-77, N-(5-nitrothiazol-2-yl)-2-(trifluoromethoxy)benzamide], the Kd under setting [1] is greater than 100 µM. Consider `CC(=O)Nc1cc(NCCCCCCCN)ccc1C(=O)Nc1nc(C)c([N+](=O)[O-])s1` [BL-7, 2-Acetamido-4-((7-aminoheptyl)amino)-N-(4-methyl-5-nitrothiazol-2-yl)benzamide], for which, under setting [2], the dissociation constant Kd was 20 to 100 µM.

Turning to `CCCCNc1ccc(OCC)c(C(=O)Nc2ncc([N+](=O)[O-])s2)c1` [B-155, 5-(Butylamino)-2-ethoxy-N-(5-nitrothiazol-2-yl)benzamide], the Kd under setting [1] is greater than 100 µM. With `CNC(=O)Nc1ccccc1C(=O)Nc1ncc([N+](=O)[O-])s1` [B-66, 2-(3-methylureido)-N-(5-nitrothiazol-2-yl)benzamide], the Kd under setting [1] was less than 20 µM. On the same count and under the same terms, next, `O=C(Nc1ncc([N+](=O)[O-])s1)c1ccccc1Br` [B-93, 2-Bromo-N-(5-nitrothiazol-2-yl)benzamide]: 20 to 100 µM; `CC(=O)Nc1ccccc1C(=O)Nc1ccc(Br)cc1` [B-59, 2-Acetamido-N-(4-bromophenyl)benzamide]: 20 to 100 µM. In the case of `CNC(=O)c1ccc(-c2cccc(O)c2)nc1NCC1CC1` [B-143, 2-((cyclopropylmethyl)amino)-6-(3-hydroxyphenyl)-N-methylnicotinamide], the Kd under setting [1] was 20 to 100 µM. SRLNRRASF [Peptide 7] gave a Kd of 20 to 100 µM. `CC(=O)Nc1ccccc1C(=O)Nc1ccc(Cl)cc1` [B-58, 2-Acetamido-N-(4-chlorophenyl)benzamide]: under setting [1], the Kd was 20 to 100 µM. Turning to `COC(=O)Oc1ccccc1C(=O)Nc1ncc([N+](=O)[O-])s1` [B-78, Methyl (2-((5-nitrothiazol-2-yl)carbamoyl)phenyl) carbonate], the Kd under setting [1] lay in the range of 20 to 100 µM. Turning to `CC(=O)Nc1cc(NCCCCN)ccc1C(=O)Nc1ccc([N+](=O)[O-])s1` [BL-20, 2-Acetamido-4-((4-aminobutyl)amino)-N-(5-nitrothiophen-2-yl)benzamide], the Kd under setting [2] is 20 to 100 µM. In the case of `CCCCNc1ccc(OC(C)=O)c(C(=O)Nc2ncc([N+](=O)[O-])s2)c1` [B-18, 4-(butylamino)-2-((5-nitrothiazol-2-yl)carbamoyl)phenylacetate], the Kd under setting [1] is 20 to 100 µM. With `CC(=O)Nc1ccccc1C(=O)Nc1ccc(Br)cn1` [B-55, 2-Acetamido-N-(5-bromopyridin-2-yl)benzamide], the Kd under setting [1] lay within 20 to 100 µM.

With `CCCNC(=O)c1cccc(C(=O)Nc2ncc([N+](=O)[O-])s2)c1NC(C)=O` [B-145, 2-Acetamido-N^1-(5-nitrothiazol-2-yl)-N^3-propylisophthalamide], the Kd under setting [1] lay within 20 to 100 µM.
